The values below come from patent US20120329837A1, “CATHEPSIN INHIBITORS FOR TREATING MICROGLIA-MEDIATED NEURON LOSS IN THE CENTRAL NERVOUS SYSTEM” (ViroBay, Inc., priority 2011, published 2012).

SMILES strings stand for the structures.

Experiment [1] has as its target T1, Human cathepsin S (Homo sapiens, UniProt P25774). Briefly: Cathepsin S Assay (Z-Val-Val-Arg-AMC hydrolysis). To be noted: Table 2; Enzyme CatS. The experiment is classed as biochemical.
Experiment [2] concerns the target T1, Human cathepsin S. Briefly: Cathepsin S Assay (Z-Val-Val-Arg-AMC hydrolysis). The class given is biochemical. As for the experimental part: Solutions of test compounds in varying concentrations were prepared in 10 μL of dimethyl sulfoxide (DMSO) and then diluted into assay buffer (40 μL, comprising: MES, 50 mM (pH 6.5); EDTA, 2.5 mM; and NaCl, 100 mM); β-mercaptoethanol, 2.5 mM; and BSA, […]. Human cathepsin S (0.05 pMoles in 25 μL of assay buffer) was added to the dilutions. The assay solutions were mixed for 5-10 seconds on a shaker plate, covered and incubated for 30 min at room temperature. Z-Val-Val-Arg-AMC (4 nMoles in 25 μL of assay buffer containing 10% DMSO) was added to the assay solutions and hydrolysis was followed spectrophotometrically (at λ 460 nm) for 5 min. Apparent inhibition constants (Ki) were calculated from the enzyme progress curves using standard mathematical models.

T1 sequence (P25774 115-331): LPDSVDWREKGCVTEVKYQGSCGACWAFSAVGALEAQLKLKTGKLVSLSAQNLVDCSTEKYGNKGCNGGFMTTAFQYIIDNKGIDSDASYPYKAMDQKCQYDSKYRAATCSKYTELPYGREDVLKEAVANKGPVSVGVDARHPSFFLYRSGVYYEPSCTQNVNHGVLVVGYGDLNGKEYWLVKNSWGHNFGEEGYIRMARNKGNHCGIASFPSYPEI

As a reminder, the IC50 is the midpoint of a concentration-inhibition curve. Lower therefore signals greater potency. At Human cathepsin S [1], `N#CC1(NC(=O)[C@H](CC(F)(F)CC2CC2)N[C@@H](c2ccccc2)C(F)(F)F)CC1` showed an IC50 below 10 nM.

Broadly, the Ki is the equilibrium dissociation constant of an inhibitor or competing ligand from its target. A higher Ki goes with a looser hold on the target. `CCC(F)(F)C[C@H](N[C@@H](c1ccc(F)cc1)C(F)(F)F)C(=O)NC1(C#N)CC1` [drawing 42]: on Human cathepsin S [2] (Table 3), the Ki is below 20 nM.

For `CC(C)CC(F)(F)C[C@H](N[C@@H](c1ccc(F)cc1)C(F)(F)F)C(=O)NC1(C#N)CC1` [drawing 40], the inhibition constant Ki on Human cathepsin S [2] (Table 3) is below 20 nM.

As to `CCCCC(F)(F)C[C@H](N[C@@H](c1ccc(F)cc1)C(F)(F)F)C(=O)NC1(C#N)CC1` [drawing 44], the inhibition constant (Ki) at Human cathepsin S [2] (Table 3) was below 20 nM.

`COc1ccc([C@H](N[C@@H](CC(F)(F)CC2CC2)C(=O)NC2(C#N)CC2)C(F)(F)F)cc1` yielded an IC50 on Human cathepsin S [1] below 10 nM.

`CC(C)CC(F)(F)C[C@H](N[C@@H](c1ccc(F)cc1)C(F)(F)F)C(=O)NC1(C#N)CC1` [drawing 31] displayed a Ki at Human cathepsin S [2] (Table 1) below 10 nM.

`N#CC1(NC(=O)[C@H](CC(F)(F)Cc2ccccc2)N[C@@H](c2ccc(F)cc2)C(F)(F)F)CC1` returned an inhibition constant (Ki) at Human cathepsin S [2] (Table 3) below 20 nM.

With `N#CC1(NC(=O)[C@H](CC(F)(F)CC2CC2)N[C@@H](c2ccc(F)cc2)C(F)(F)F)CC1`, the Ki on Human cathepsin S [2] (Table 3) is below 20 nM.

In the case of `CCC(F)(F)CC[C@H](N[C@@H](c1ccc(F)cc1)C(F)(F)F)C(=O)NC1(C#N)CC1`, at Human cathepsin S [2] (Table 3), the Ki was below 20 nM.

In turn, `CCCC(F)(F)C[C@H](N[C@@H](c1ccc(F)cc1)C(F)(F)F)C(=O)NC1(C#N)CC1` [drawing 32] came in with a Ki on Human cathepsin S [2] (Table 1) below 10 nM.

`CCC(F)(F)C[C@H](N[C@@H](c1ccc(F)cc1)C(F)(F)F)C(=O)NC1(C#N)CC1` [drawing 30]: on Human cathepsin S [2] (Table 1), the Ki is below 10 nM.

In turn, `N#CC1(NC(=O)[C@H](CC(F)(F)CC2CC2)N[C@@H](c2ccc(F)c(F)c2)C(F)(F)F)CC1` showed an IC50 against Human cathepsin S [1] below 10 nM.

Regarding `CC(C)CS(=O)(=O)C[C@H](N[C@@H](c1ccc(F)cc1)C(F)(F)F)C(=O)NC1(C#N)CC1`, on Human cathepsin S [2] (text statement for drawn compounds), the inhibition constant Ki is below 10 nM.

Turning to `N#CC1(NC(=O)[C@H](CC(F)(F)CC2CC2)N[C@@H](c2ccc(C(F)(F)F)cc2)C(F)(F)F)CC1`, the IC50 at Human cathepsin S [1] is below 10 nM.

In turn, `CCCC(F)(F)C[C@H](N[C@@H](c1ccc(F)cc1)C(F)(F)F)C(=O)NC1(C#N)CC1` [drawing 43] showed a Ki at Human cathepsin S [2] (Table 3) below 20 nM.

As to `N#CC1(NC(=O)[C@H](CC(F)(F)c2ccccc2)N[C@@H](c2ccc(F)cc2)C(F)(F)F)CC1`, the Ki at Human cathepsin S [2] (Table 3) is below 20 nM.

`CCCCC(F)(F)C[C@H](N[C@@H](c1ccc(F)cc1)C(F)(F)F)C(=O)NC1(C#N)CC1` [drawing 33] registered a Ki at Human cathepsin S [2] (Table 1) below 10 nM.
